{
  "source": "patent US20040014215A1",
  "about": "“Synchronised arabidopsis cell suspensions and uses thereof” (priority 2000, published 2004)",
  "key": {"[1]": {"system": "Arabidopsis cell suspension culture MM1", "test": "Aphidicolin block/release of MM1: mitotic index (DAPI) and labelling index (BrdU)", "format": "cell-based, Arabidopsis thaliana", "description": "Arabidopsis cell suspension culture MM1 (DSM 13563) was used for synchronisation experiments. The suspension culture was maintained by sub-culturing weekly 10 ml into 200 ml of fresh MSS-medium (MS-salt, 3% sucrose, 0.5 mg/l NAA, 0.05 mg/l kinetin) which is cultured in 500 ml narrow neck Erlenmeyer flasks, of which the opening is covered with double layer of aluminium foil and loosely covered with Saran wrap and which are placed on a GYROTORY® Shaker (New Brunswick Scientific). The cell suspension culture was grown under continuous light conditions (24 hrs a day); Philips lamps were used with the specification TLD HF 50W/840; light level is in average 1300 Lux and the cell suspension culture is rotated at 120 rpm at a temperature varying between 23-25° C. To arrest cells reversibly in late G1/early S-phase, cells were blocked with aphidicolin according to Nagata et al. 1992 (with slight modifications), 40 ml of an early stationary phase cell suspension culture was subcultured into 200 ml MSS-medium, 4.16 μg/ml aphidicolin was added to block cells at the end of G1/early S-phase, and the culture was incubated at 23° C., 120 rpm in the conditions as described above for MM1, for a period of 21.5 hrs. To remove aphidicolin, cells were washed through a nylon mesh (mesh size 47 μm) with 11 MSS-medium by vigorously shaking and resuspended in MSS-medium. The cells were vigorously shaken, for a washing time of about 14 min, and then centrifuged at 150Orpm for 1 min (387 rcf) with the brake switched off."}, "[2]": {"system": "Transgenic MM1-cycD2 cell lines", "test": "Aphidicolin block/release of transgenic MM1-cycD2 cell lines", "format": "cell-based, Arabidopsis thaliana", "conditions": "compared with non transgenic MM1 cell lines", "description": "To re-establish liquid cultures of putative transgenic MM1-calli, callus tissue was transferred to a 55 mm petridish, carefully squeezed with a pipet tip and resuspended in 10 ml fresh MSS-medium (0.5 mg/l NM, 0.05 mg/l kinetin, 100 μg/ml kanamycin). The callus derived cell suspensions were incubated at 120 rpm, 23° C. under continuous light conditions in 100 ml Erlenmeyer flasks. After 10 days cultivation, 10 ml MSS-medium (0.5 mg/l NM, 0.05 mg/l kinetin) was added to the suspension cultures and left for further 7 days under conditions as above. 5 ml putative transgenic cell suspension was subcultured into 50 ml fresh MSS-medium (0.5 mg/l NM, 0.05 mg/l kinetin, 100 μg/ml kanamycin). This subculturing procedure was repeated twice at 7 days intervals in the same medium. Subsequent subculturing was carried out weekly into fresh MSS-medium (0.5 mg/l NAA, 0.05 mg/l kinetin without kanamycin selection), adjusting the transferred volume of cells to produce an inoculum of approximately the same as WT-MM1 culture. In the example of putative transgenic MM1-cycD2 cell suspensions, these were maintained by subculturing weekly 3.5 ml into 100 ml fresh MSS-medium (0.5 mg/l NAA, 0.05 mg/l kinetin) in 300 ml Erlenmeyer flasks. […] Putative transgenic calli or the suspension cultures thereof were analyzed using PCR and appropriate primers allowing to detect the cycD2 coding region. […]"}, "tobacco BY-2 cell line": {"system": "tobacco BY-2 cell line", "conditions": "BY-2, aphidicolin block; cited from earlier work"}, "[3]": {"system": "Arabidopsis cell suspension culture", "conditions": "phosphate starvation 32 hours then aphidicolin, cited from earlier work"}, "[4]": {"conditions": "range seen on blocking the cells with aphidicolin"}, "[5]": {"conditions": "this experiment (Example 2A), after release from aphidicolin block"}},
  "data": [
    {"smiles": "C[C@@]1(CO)[C@H](O)CC[C@@]2(C)[C@H]1CC[C@H]1C[C@@H]3C[C@@]12CC[C@]3(O)CO", "note": "[aphidicolin]", "values": [
      {"measurement": "Labelling Index (%)", "setting": "[1]; 1 h after aphidicolin removal", "value": 23.21, "unit": "%"},
      {"measurement": "Mitotic index (%)", "setting": "[1]; 1 h after aphidicolin removal", "value": 0, "unit": "%"},
      {"measurement": "Labelling Index (%)", "setting": "[1]; 2 h after aphidicolin removal", "value": 41.3, "unit": "%"},
      {"measurement": "Mitotic index (%)", "setting": "[1]; 2 h after aphidicolin removal", "value": 0.5, "unit": "%"},
      {"measurement": "Labelling Index (%)", "setting": "[1]; 3 h after aphidicolin removal", "value": 65.06, "unit": "%"},
      {"measurement": "Mitotic index (%)", "setting": "[1]; 3 h after aphidicolin removal", "value": 0.58, "unit": "%"},
      {"measurement": "Labelling Index (%)", "setting": "[1]; 4 h after aphidicolin removal", "value": 64.13, "unit": "%"},
      {"measurement": "Mitotic index (%)", "setting": "[1]; 4 h after aphidicolin removal", "value": 0.5, "unit": "%"},
      {"measurement": "Labelling Index (%)", "setting": "[1]; 5 h after aphidicolin removal", "value": 50, "unit": "%"},
      {"measurement": "Mitotic index (%)", "setting": "[1]; 5 h after aphidicolin removal", "value": 0.68, "unit": "%"},
      {"measurement": "Labelling Index (%)", "setting": "[1]; 6 h after aphidicolin removal", "value": 18.43, "unit": "%"},
      {"measurement": "Mitotic index (%)", "setting": "[1]; 6 h after aphidicolin removal", "value": 1.88, "unit": "%"},
      {"measurement": "Labelling Index (%)", "setting": "[1]; 7 h after aphidicolin removal", "value": 13.67, "unit": "%"},
      {"measurement": "Mitotic index (%)", "setting": "[1]; 7 h after aphidicolin removal", "value": 2.37, "unit": "%"},
      {"measurement": "Labelling Index (%)", "setting": "[1]; 8 h after aphidicolin removal", "value": 10.32, "unit": "%"},
      {"measurement": "Mitotic index (%)", "setting": "[1]; 8 h after aphidicolin removal", "value": 2.04, "unit": "%"},
      {"measurement": "Labelling Index (%)", "setting": "[1]; 9 h after aphidicolin removal", "value": 8.1, "unit": "%"},
      {"measurement": "Mitotic index (%)", "setting": "[1]; 9 h after aphidicolin removal", "value": 2.63, "unit": "%"},
      {"measurement": "Labelling Index (%)", "setting": "[1]; 10 h after aphidicolin removal", "value": 7.86, "unit": "%"},
      {"measurement": "Mitotic index (%)", "setting": "[1]; 10 h after aphidicolin removal", "value": 2.84, "unit": "%"},
      {"measurement": "Labelling Index (%)", "setting": "[1]; 11 h after aphidicolin removal", "value": 7.65, "unit": "%"},
      {"measurement": "Mitotic index (%)", "setting": "[1]; 11 h after aphidicolin removal", "value": 5.06, "unit": "%"},
      {"measurement": "Labelling Index (%)", "setting": "[1]; 12 h after aphidicolin removal", "value": 6.8, "unit": "%"},
      {"measurement": "Mitotic index (%)", "setting": "[1]; 12 h after aphidicolin removal", "value": 7.96, "unit": "%"},
      {"measurement": "Labelling Index (%)", "setting": "[1]; 13 h after aphidicolin removal", "value": 3.08, "unit": "%"},
      {"measurement": "Mitotic index (%)", "setting": "[1]; 13 h after aphidicolin removal", "value": 11.67, "unit": "%"},
      {"measurement": "Labelling Index (%)", "setting": "[1]; 14 h after aphidicolin removal", "value": 5.05, "unit": "%"},
      {"measurement": "Mitotic index (%)", "setting": "[1]; 14 h after aphidicolin removal", "value": 9.03, "unit": "%"},
      {"measurement": "Labelling Index (%)", "setting": "[1]; 15 h after aphidicolin removal", "value": 3.68, "unit": "%"},
      {"measurement": "Mitotic index (%)", "setting": "[1]; 15 h after aphidicolin removal", "value": 7.86, "unit": "%"},
      {"measurement": "Labelling Index (%)", "setting": "[1]; 16 h after aphidicolin removal", "value": 4.09, "unit": "%"},
      {"measurement": "Mitotic index (%)", "setting": "[1]; 16 h after aphidicolin removal", "value": 5, "unit": "%"},
      {"measurement": "Labelling Index (%)", "setting": "[1]; 17 h after aphidicolin removal", "value": 9.46, "unit": "%"},
      {"measurement": "Mitotic index (%)", "setting": "[1]; 17 h after aphidicolin removal", "value": 2.96, "unit": "%"},
      {"measurement": "Labelling Index (%)", "setting": "[1]; 18 h after aphidicolin removal", "value": 12.96, "unit": "%"},
      {"measurement": "Mitotic index (%)", "setting": "[1]; 18 h after aphidicolin removal", "value": 3.24, "unit": "%"},
      {"measurement": "Labelling Index (%)", "setting": "[1]; 19 h after aphidicolin removal", "value": 10.91, "unit": "%"},
      {"measurement": "Mitotic index (%)", "setting": "[1]; 19 h after aphidicolin removal", "value": 2.06, "unit": "%"},
      {"measurement": "MI peak", "setting": "[1]; [4]", "value": "10 to 15", "unit": "%"},
      {"measurement": "labelling index", "setting": "[1]; [4]", "value": "50-65%"},
      {"measurement": "LI peak", "setting": "[1]; [5]", "value": 65, "unit": "%"},
      {"measurement": "MI peak", "setting": "[1]; [5]", "value": 12, "unit": "%"},
      {"measurement": "synchronisation by aphidicolin block/release", "setting": "[2]", "value": "could be synchronized in a similar way as non transgenic MM1 cell lines"},
      {"measurement": "mitotic index", "setting": "tobacco BY-2 cell line", "value": "45-50%"},
      {"measurement": "cells in S-phase", "setting": "[3]; 2 h after release of block", "value": "50 to 60", "unit": "%"},
      {"measurement": "cells in G2 phase", "setting": "[3]; after 8 h", "value": 50, "unit": "%"}
    ]}
  ]
}
